Experimental data as given in US7265152B2 (ViroPharma Incorporated, priority 2002, dated 2007).

Columns and labels:
HCV NS5B = target: T1, HCV NS5B (Hepatitis C virus genotype 1b, UniProt Q9WMX2); assay: Inhibition of viral RNA-dependent RNA polymerase (RdRp), in vitro biochemical assay; design: species or system HCV genotype 1b virus (BB7); details: purified His-tagged NS5B (BB7), carboxyl terminal 21 amino acids removed; read-out: HCV pol-BB7 IC50
T1 construct: fusion protein, of which the carboxyl terminal 21 amino acids were removed to enhance its solubility; His tag (GSHHHHHH); made in house; host or cells: E. coli
Excerpt: The HCV NS5B-directed RdRp activity was established and characterized in a standard in vitro biochemical assay using a purified HCV NS5B protein derived from the consensus sequence of a patient infected with HCV genotype 1b virus (BB7). (See Blight K J et al., Science. 2000, 290:1972-4). The NS5B consensus sequence was cloned and expressed in E. coli as a histidine tagged (GSHHHHHH) fusion protein, of which the carboxyl terminal 21 amino acids were removed to enhance its solubility.
In addition to evaluating their activity in the replicon assay, representative compounds within the scope of the present invention, as shown in examples 1-453 of Table 1, were also evaluated for antiviral activity using this assay. A measure of the inhibitory activity of compounds of the invention may be expressed as IC50 values. IC50 values represent the concentration of the compound at which 50% of the RdRp activity is inhibited. […] These low concentrations of test compounds required to achieve 50% inhibition of the RdRp activity indicate that the compounds of the invention are effective at inhibiting RNA synthesis by viral RdRp enzymes.

[1] = tested on: HCV replicon (BB7 sequence) in Huh-7-Clone A cells; assay: HCV replicon assay: ELISA of NS5A protein in replicon-containing cells (Inhibition of Viral RNA Replication); format: cell-based; details: Hepatitis C virus; Huh-7-Clone A, NS5A ELISA, 72-hour incubation; ranges of EC50; read-out: Replicon
Excerpt: Antiviral activity of representative compounds of the invention was first evaluated in a human liver-derived cell line (Huh-7-Clone A) containing the HCV replicon (BB7 sequence) (See Lohmann et al. Science. 1999, 285:110-3; Blight K J et al., Science. 2000, 290:1972-4; Pietschmann, T. et al., J. Virol. 2001, 73:1252-1264; and Lohmann, V. et al., J. Virol. 2001, 75:1437-1449). The HCV replicon is a subgenomic viral RNA that expresses the HCV proteins required for its own replication. These proteins include non-structural proteins NS3, NS4A, NS4B, NS5A and NS5B. The replicon also contains a foreign gene encoding a drug-selectable marker (neomycin phosphotransferase) to allow for G418 (neomycin) selection of cells that contain the replicon.
An ELISA (enzyme-linked immunosorbant assay) was used to determine the effect of compounds within the scope of the invention on the amount of HCV NS5A protein produced after a 72-hour incubation of the replicon-containing cells in the presence of varying concentrations of compound. COSTAR® 96-well cell culture plates were used but other known cell culture plates may be used. After incubation, media is removed from wells and the cells are fixed to the assay plate using 0.05% glutaraldehyde. The glutaraldehyde is then washed off using phosphate-buffered saline (PBS) following a 1 hour incubation and cells are blocked for non-specific antibody binding using for example SUPERBLOCK® reagent (blocking buffer) in PBS. The blocking agent is rinsed from the cells with PBS after 1 hour at 37° C. and primary monoclonal antibody is added to each well containing compound. Primary antibody is incubated for 1 hour at 37° C. and rinsed 3 times with PBS containing 0.02% TWEEN-20™ before addition of Horseradish Peroxidase (HRP) conjugated secondary antibody. HRP is incubated for 1 hour at 37° C. and rinsed several times, first with PBS/TWEEN-20™ followed by PBS alone. To quantify peroxidase activity, 3,3′,5, 5′-tetramethylbenzidine (TMB) substrate is added to the plate and after 30 minutes, the plates are read in an ELISA plate reader at an OD of 650 nm. Compound dose response was measured in an 8-point dose curve diluted serially to determine the inhibitory concentration at 50% (EC50 value). […] Ranges of 50% effective concentrations (EC50s) for representative compounds within the scope of this invention are listed in Table 1. Preferred compounds have 50% effective concentrations at about 30 μM or less, more preferred compounds have 50% effective concentrations at about 5 μM or less, and most preferred compounds have 50% effective concentrations at about 0.5 μM or less.

Row | Structure (SMILES) | IC50 (HCV NS5B) | EC50 [1]
1 | CNC(=O)c1c(-c2ccc(F)cc2)oc2cc(N)c(OC)cc12 [Example 17, 6-Amino-2-(4-fluoro-phenyl)-5-methoxy-benzofuran-3-carboxylic acid methylamide] | 500 to 5000 nM | < 10000 nM
2 | CNC(=O)c1c(-c2ccc(F)cc2)oc2cc(NC(C)=O)c(OC)cc12 [Example 18, 6-Acetylamino-2-(4-fluoro-phenyl)-5-methoxy-benzofuran-3-carboxylic acid methylamide] | ≤ 500 nM | < 1000 nM
3 | CNC(=O)c1c(-c2ccc(F)cc2)oc2cc(NC)c(OC(C)C)cc12 [Example 19, 2-(4-Fluoro-phenyl)-5-isopropoxy-6-methylamino-benzofuran-3-carboxylic acid methylamide] | ≤ 500 nM | < 1000 nM
4 | CNC(=O)c1c(-c2ccc(F)cc2)oc2cc(N(C)C)c(OC(C)C)cc12 [Example 20, 6-Dimethylamino-2-(4-fluoro-phenyl)-5-isopropoxy-benzofuran-3-carboxylic acid methylamide] | ≤ 500 nM | < 1000 nM
5 | CNC(=O)c1c(-c2ccc(F)cc2)oc2cc(NS(C)(=O)=O)c(OC(C)C)cc12 [Example 21, 2-(4-Fluoro-phenyl)-5-isopropoxy-6-methanesulfonylamino-benzofuran-3-carboxylic acid methylamide] | ≤ 500 nM | < 1000 nM
6 | CCNc1cc2oc(-c3ccc(F)cc3)c(C(=O)NC)c2cc1OC(C)C [Example 22, 6-Ethylamino-2-(4-fluoro-phenyl)-5-isopropoxy-benzofuran-3-carboxylic acid methylamide] | ≤ 500 nM | < 1000 nM
7 | CCN(CC)c1cc2oc(-c3ccc(F)cc3)c(C(=O)NC)c2cc1OC(C)C [Example 23, 6-Diethylamino-2-(4-fluoro-phenyl)-5-isopropoxy-benzofuran-3-carboxylic acid methylamide] | ≤ 500 nM | < 1000 nM
8 | CNC(=O)c1c(-c2ccc(F)cc2)oc2cc(N3CCOCC3)c(OC(C)C)cc12 [Example 24, 2-(4-Fluoro-phenyl)-5-isopropoxy-6-morpholin-4-yl-benzofuran-3-carboxylic acid methylamide] | ≤ 500 nM | < 1000 nM
9 | CNC(=O)c1c(-c2ccccc2)oc2ccc(OC)c(C)c12 [Example 25, 5-Methoxy-4-methyl-2-phenyl-benzofuran-3-carboxylic acid methylamide] | > 30000 nM | > 30000 nM
10 | CNC(=O)c1c(-c2ccccc2)oc2ccc(C#N)cc12 [Example 26, 5-Cyano-2-phenyl-benzofuran-3-carboxylic acid methylamide] | 5000 to 30000 nM | < 30000 nM
11 | CNC(=O)c1c(-c2ccncc2)oc2ccc(OC(C)C)cc12 [Example 27, 5-Isopropoxy-2-pyridin-4-yl-benzofuran-3-carboxylic acid methylamide] | 5000 to 30000 nM | > 30000 nM
12 | CNC(=O)c1c(-c2ccc(F)cc2)oc2cc(-c3c(C)noc3C)c(OC)cc12 [Example 28, 6-(3,5-Dimethyl-isoxazol-4-yl)-2-(4-fluoro-phenyl)-5-methoxy-benzofuran-3-carboxylic acid methylamide] | ≤ 500 nM | < 1000 nM
13 | CNC(=O)c1c(-c2ccc(F)cc2)oc2cc(N(C)S(C)(=O)=O)c(OC)cc12 [Example 29, 2-(4-Fluoro-phenyl)-6-(methanesulfonyl-methyl-amino)-5-methoxy-benzofuran-3-carboxylic acid methylamide] | ≤ 500 nM | < 1000 nM
14 | CNC(=O)c1c(-c2ccc(F)cc2)oc2cc(N3CCOCC3)c(OCc3ccc(OC)cc3)cc12 [Example 30, 2-(4-Fluoro-phenyl)-5-(4-methoxy-benzyloxy)-6-morpholin-4-yl-benzofuran-3-carboxylic acid methylamide] | ≤ 500 nM | < 1000 nM
15 | CNC(=O)c1c(-c2ccc(F)cc2)oc2cc(N(Cc3ccc(OC)cc3)S(C)(=O)=O)c(OCc3ccc(OC)cc3)cc12 [Example 31, 2-(4-Fluoro-phenyl)-6-[methanesulfonyl-(4-methoxy-benzyl)-amino]-5-(4-methoxy-benzyloxy)-benzofuran-3-carboxylic acid methylamide] | ≤ 500 nM | < 1000 nM
16 | CCOc1cc2c(C(=O)NC)c(-c3ccc(F)cc3)oc2cc1N(CC)S(C)(=O)=O [Example 32, 5-Ethoxy-6-(ethyl-methanesulfonyl-amino)-2-(4-fluoro-phenyl)-benzofuran-3-carboxylic acid methylamide] | ≤ 500 nM | < 1000 nM
17 | CNC(=O)c1c(-c2ccc(F)cc2)oc2cc(N3CCOCC3)c(OCc3nccs3)cc12 [Example 33, 2-(4-Fluoro-phenyl)-6-morpholin-4-yl-5-(thiazol-2-ylmethoxy)-benzofuran-3-carboxylic acid methylamide] | ≤ 500 nM | < 1000 nM
18 | CNC(=O)c1c(-c2ccc(F)cc2)oc2cc(N(CC(C)=O)S(C)(=O)=O)c(OC(C)C)cc12 [Example 34, 2-(4-Fluoro-phenyl)-5-isopropoxy-6-[methanesulfonyl-(2-oxo-propyl)-amino]-benzofuran-3-carboxylic acid methylamide] | ≤ 500 nM | < 1000 nM
19 | CNC(=O)c1c(-c2ccc(F)cc2)oc2cc(N3CCOCC3)c(OCc3cscn3)cc12 [Example 35, 2-(4-Fluoro-phenyl)-6-morpholin-4-yI-5-(thiazol-4-ylmethoxy)-benzofuran-3-carboxylic acid methylamide] | ≤ 500 nM | < 1000 nM
20 | CNC(=O)c1c(-c2ccc(F)cc2)oc2cc(N(Cc3cscn3)S(C)(=O)=O)c(OC(C)C)cc12 [Example 36, 2-(4-Fluoro-phenyl)-5-isopropoxy-6-(methanesulfonyl-thiazol-4-ylmethyl-amino)-benzofuran-3-carboxylic acid methylamide] | ≤ 500 nM | < 1000 nM
21 | CNC(=O)c1c(-c2ccc(F)cc2)oc2cc(-c3cc(CO)on3)c(OC(C)C)cc12 [Example 37, 2-(4-Fluoro-phenyl)-6-(5-hydroxymethyl-isoxazol-3-yl)-5-isopropoxy-benzofuran-3-carboxylic acid methylamide] | ≤ 500 nM | < 1000 nM
22 | CCOc1cc2c(C(=O)NC)c(-c3ccc(F)cc3)oc2cc1N(C)S(C)(=O)=O [Example 38, 5-Ethoxy-2-(4-fluoro-phenyl)-6-(methanesulfonyl-methyl-amino)-benzofuran-3-carboxylic acid methylamide] | ≤ 500 nM | < 1000 nM
23 | CNC(=O)c1c(-c2ccc(F)cc2)oc2cc(N(C)S(C)(=O)=O)c(OCc3ccc(C(=O)O)c(O)c3)cc12 [Example 39, 4-[2-(4-Fluoro-phenyl)-6-(methanesulfonyl-methyl-amino)-3-methylcarbamoyl-benzofuran-5-yloxymethyl]-2-hydroxy-benzoic acid] | ≤ 500 nM | < 10000 nM
24 | CNC(=O)c1c(-c2ccc(F)cc2)oc2cc(-c3cc(CO)on3)c(OC)cc12 [Example 40, 2-(4-Fluoro-phenyl)-6-(5-hydroxymethyl-isoxazol-3-yl)-5-methoxy-benzofuran-3-carboxylic acid methylamide] | ≤ 500 nM | < 1000 nM
25 | CNC(=O)c1c(-c2ccc(F)cc2)oc2cc(-c3nocc3CCO)c(OC)cc12 [Example 41, 2-(4-Fluoro-phenyl)-6-[4-(2-hydroxy-ethyl)-isoxazol-3-yl]-5-methoxy-benzofuran-3-carboxylic acid methylamide] | ≤ 500 nM | < 1000 nM
